Data published in ChEMBL document CHEMBL3885881, “DrugMatrix”.

Species: Rattus norvegicus
Assay: DrugMatrix - Regimen: Daily Repeat
Assay type: toxicity, organism-based, Sprague-Dawley
Parameters: regimen Daily Repeat, gender Male, age 6-8 weeks
Settings: in vivo, po, route oral GAVAGE, […]; for ABSOLUTE BASOPHIL / ABSOLUTE EOSINOPHIL / ABSOLUTE LYMPHOCYTE / ABSOLUTE MONOCYTE / ABSOLUTE SEGMENTED NEUTROPHIL / BASOPHIL / EOSINOPHIL / ERYTHROCYTE COUNT / HEMATOCRIT / HEMOGLOBIN / LEUKOCYTE COUNT / LYMPHOCYTE / MEAN CORPUSCULAR HEMOGLOBIN / MEAN CORPUSCULAR HEMOGLOBIN CONCENTRATION / MEAN CORPUSCULAR VOLUME / MONOCYTE / NEUTROPHIL / NUCLEATED RED BLOOD CELLS / PLATELET COUNT: tissue Blood; for ALANINE AMINOTRANSFERASE / ALBUMIN / ALKALINE PHOSPHATASE / ASPARTATE AMINOTRANSFERASE / BLOOD UREA NITROGEN / CARBON DIOXIDE / CHLORIDE / CHOLESTEROL / CREATINE PHOSPHOKINASE / CREATININE / GLUCOSE / LACTATE DEHYDROGENASE / LIPASE / PHOSPHORUS / POTASSIUM / SODIUM / TOTAL BILIRUBIN / TOTAL PROTEIN / URIC ACID: tissue Plasma
[1] = 0 mg/kg, 72 h, dose level Control, time 3 day
[2] = 0 mg/kg, 120 h, dose level Control, time 5 day
[3] = 47 mg/kg, 72 h, dose level Low, time 3 day

CC(=O)Nc1nnc(S(N)(=O)=O)s1 [ACETAZOLAMIDE]
ABSOLUTE BASOPHIL [1]: 0 CELLS/uL | ABSOLUTE EOSINOPHIL [1]: 41.83 CELLS/uL | ABSOLUTE LYMPHOCYTE [1]: 8545.5 CELLS/uL | ABSOLUTE MONOCYTE [1]: 240 CELLS/uL | ABSOLUTE SEGMENTED NEUTROPHIL [1]: 906 CELLS/uL | BASOPHIL [1]: 0% | EOSINOPHIL [1]: 0.33% | ERYTHROCYTE COUNT [1]: 5.6 x10E6/uL | HEMATOCRIT [1]: 35.4% | HEMOGLOBIN [1]: 13.42 G/DL | LEUKOCYTE COUNT [1]: 9.73 x10E3/uL | LYMPHOCYTE [1]: 87.83% | MEAN CORPUSCULAR HEMOGLOBIN [1]: 23.98 pg | MEAN CORPUSCULAR HEMOGLOBIN CONCENTRATION [1]: 37.92 G/DL | MEAN CORPUSCULAR VOLUME [1]: 63.3 fL | MONOCYTE [1]: 2.5% | NEUTROPHIL [1]: 9.33% | NUCLEATED RED BLOOD CELLS [1]: 0 /100WBC | PLATELET COUNT [1]: 1032 x10E3/uL | ALANINE AMINOTRANSFERASE [1]: 72.83 u/L | ALBUMIN [1]: 4 G/DL | ALKALINE PHOSPHATASE [1]: 322.83 u/L | ASPARTATE AMINOTRANSFERASE [1]: 102.67 u/L | BLOOD UREA NITROGEN [1]: 12 mg/dL | CARBON DIOXIDE [1]: 34.33 mmol/L | CHLORIDE [1]: 97.67 MEQ/L | CHOLESTEROL [1]: 82.5 mg/dL | CREATINE PHOSPHOKINASE [1]: 410.33 u/L | CREATININE [1]: 0.18 mg/dL | GLUCOSE [1]: 164.5 mg/dL | LACTATE DEHYDROGENASE [1]: 119.5 u/L | LIPASE [1]: 11.83 u/L | PHOSPHORUS [1]: 9.52 mg/dL | POTASSIUM [1]: 5.56 MEQ/L | SODIUM [1]: 142.48 MEQ/L | TOTAL BILIRUBIN [1]: 0.18 mg/dL | TOTAL PROTEIN [1]: 5.77 G/DL | URIC ACID [1]: 0.48 mg/dL | ABSOLUTE BASOPHIL [2]: 0 CELLS/uL | ABSOLUTE EOSINOPHIL [2]: 0 CELLS/uL | ABSOLUTE LYMPHOCYTE [2]: 9065 CELLS/uL | ABSOLUTE MONOCYTE [2]: 341.33 CELLS/uL | ABSOLUTE SEGMENTED NEUTROPHIL [2]: 527 CELLS/uL | BASOPHIL [2]: 0% | EOSINOPHIL [2]: 0% | ERYTHROCYTE COUNT [2]: 5.25 x10E6/uL | HEMATOCRIT [2]: 34.08% | HEMOGLOBIN [2]: 13.5 G/DL | LEUKOCYTE COUNT [2]: 9.93 x10E3/uL | LYMPHOCYTE [2]: 91.17% | MEAN CORPUSCULAR HEMOGLOBIN [2]: 25.7 pg | MEAN CORPUSCULAR HEMOGLOBIN CONCENTRATION [2]: 39.62 G/DL | MEAN CORPUSCULAR VOLUME [2]: 64.93 fL | MONOCYTE [2]: 3.33% | NEUTROPHIL [2]: 5.5% | NUCLEATED RED BLOOD CELLS [2]: 0 /100WBC | PLATELET COUNT [2]: 1077.5 x10E3/uL | ALANINE AMINOTRANSFERASE [2]: 57.83 u/L | ALBUMIN [2]: 4.07 G/DL | ALKALINE PHOSPHATASE [2]: 319.17 u/L | ASPARTATE AMINOTRANSFERASE [2]: 83.33 u/L | BLOOD UREA NITROGEN [2]: 13.67 mg/dL | CARBON DIOXIDE [2]: 30.83 mmol/L | CHLORIDE [2]: 98.33 MEQ/L | CHOLESTEROL [2]: 64.83 mg/dL | CREATINE PHOSPHOKINASE [2]: 263.67 u/L | CREATININE [2]: 0.2 mg/dL | GLUCOSE [2]: 182.83 mg/dL | LACTATE DEHYDROGENASE [2]: 124 u/L | LIPASE [2]: 10.5 u/L | PHOSPHORUS [2]: 10 mg/dL | POTASSIUM [2]: 5.78 MEQ/L | SODIUM [2]: 142.48 MEQ/L | TOTAL BILIRUBIN [2]: 0.2 mg/dL | TOTAL PROTEIN [2]: 6 G/DL | URIC ACID [2]: 0.7 mg/dL | ABSOLUTE BASOPHIL [3]: 0 CELLS/uL | ABSOLUTE EOSINOPHIL [3]: 0 CELLS/uL | ABSOLUTE LYMPHOCYTE [3]: 9847 CELLS/uL | ABSOLUTE MONOCYTE [3]: 251.33 CELLS/uL | ABSOLUTE SEGMENTED NEUTROPHIL [3]: 935 CELLS/uL | BASOPHIL [3]: 0% | EOSINOPHIL [3]: 0% | ERYTHROCYTE COUNT [3]: 5.11 x10E6/uL | HEMATOCRIT [3]: 32.2% | HEMOGLOBIN [3]: 12.47 G/DL | LEUKOCYTE COUNT [3]: 11.03 x10E3/uL | LYMPHOCYTE [3]: 88.67% | MEAN CORPUSCULAR HEMOGLOBIN [3]: 24.43 pg | MEAN CORPUSCULAR HEMOGLOBIN CONCENTRATION [3]: 38.77 G/DL | MEAN CORPUSCULAR VOLUME [3]: 63 fL | MONOCYTE [3]: 2.33% | NEUTROPHIL [3]: 9% | NUCLEATED RED BLOOD CELLS [3]: 0 /100WBC | PLATELET COUNT [3]: 1122.33 x10E3/uL | ALANINE AMINOTRANSFERASE [3]: 67 u/L | ALBUMIN [3]: 3.77 G/DL | ALKALINE PHOSPHATASE [3]: 486.33 u/L | ASPARTATE AMINOTRANSFERASE [3]: 91.33 u/L | BLOOD UREA NITROGEN [3]: 11.33 mg/dL | CARBON DIOXIDE [3]: 31 mmol/L | CHLORIDE [3]: 99 MEQ/L | CHOLESTEROL [3]: 74 mg/dL | CREATINE PHOSPHOKINASE [3]: 250 u/L | CREATININE [3]: 0.31 mg/dL | GLUCOSE [3]: 173 mg/dL | LACTATE DEHYDROGENASE [3]: 140.67 u/L | LIPASE [3]: 13.33 u/L | PHOSPHORUS [3]: 10.33 mg/dL | POTASSIUM [3]: 5.3 MEQ/L | SODIUM [3]: 144.37 MEQ/L | TOTAL BILIRUBIN [3]: 0.23 mg/dL | TOTAL PROTEIN [3]: 5.5 G/DL | URIC ACID [3]: 0.67 mg/dL
